{"source": "patent US20250206714A1", "about": "“COMPOSITIONS AND METHODS FOR TREATMENT OF INFLAMMATORY DISEASES” (Invea Therapeutics, Inc., priority 2022, published 2025)", "key": {"CYP 2C19": {"target": "T1, CYP 2C19 (Homo sapiens, UniProt P33261)", "T1 construct": "The experiment was conducted in human liver microsomes; from tissue; host or cells: human liver microsomes", "T1 sequence (P33261 whole entry)": "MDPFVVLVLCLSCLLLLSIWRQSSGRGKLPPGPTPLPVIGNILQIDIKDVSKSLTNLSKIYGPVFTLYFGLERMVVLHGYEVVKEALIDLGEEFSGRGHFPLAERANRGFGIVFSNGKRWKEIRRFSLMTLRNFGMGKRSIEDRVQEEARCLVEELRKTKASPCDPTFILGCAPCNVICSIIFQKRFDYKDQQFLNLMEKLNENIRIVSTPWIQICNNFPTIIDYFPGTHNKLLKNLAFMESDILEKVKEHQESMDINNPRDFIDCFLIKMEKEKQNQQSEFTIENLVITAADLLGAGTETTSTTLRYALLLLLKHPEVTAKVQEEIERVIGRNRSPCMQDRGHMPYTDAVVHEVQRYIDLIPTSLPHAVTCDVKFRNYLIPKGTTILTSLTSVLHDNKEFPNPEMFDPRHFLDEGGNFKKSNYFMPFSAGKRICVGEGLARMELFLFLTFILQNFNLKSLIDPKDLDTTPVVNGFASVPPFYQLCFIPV", "test": "Metabolic stability in human liver microsomes with CYP 2C19 inhibitor Nootkatone", "type": "in vitro ADME", "conditions": "1 μM + Nootkatone (20 μM)"}, "CYP 2C9": {"target": "T2, CYP 2C9 (Homo sapiens, UniProt P11712)", "T2 construct": "The experiment was conducted in human liver microsomes; from tissue; host or cells: human liver microsomes", "T2 sequence (P11712 whole entry)": "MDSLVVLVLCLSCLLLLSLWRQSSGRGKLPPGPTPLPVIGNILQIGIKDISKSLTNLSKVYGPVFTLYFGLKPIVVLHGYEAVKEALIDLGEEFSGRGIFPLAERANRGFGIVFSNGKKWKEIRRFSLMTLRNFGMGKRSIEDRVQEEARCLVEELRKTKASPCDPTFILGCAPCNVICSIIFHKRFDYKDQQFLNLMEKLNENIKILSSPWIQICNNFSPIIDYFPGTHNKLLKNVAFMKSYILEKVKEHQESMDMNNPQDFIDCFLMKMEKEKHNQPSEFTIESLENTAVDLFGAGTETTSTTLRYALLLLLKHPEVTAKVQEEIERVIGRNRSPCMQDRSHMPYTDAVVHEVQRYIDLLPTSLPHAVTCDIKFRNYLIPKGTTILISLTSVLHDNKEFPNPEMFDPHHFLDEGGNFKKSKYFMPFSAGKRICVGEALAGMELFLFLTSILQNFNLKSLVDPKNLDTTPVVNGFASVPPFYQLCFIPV", "test": "Metabolic stability in human liver microsomes with CYP 2C9 inhibitor Sulfaphenazole", "type": "in vitro ADME", "conditions": "1 μM + Sulfaphenazole (20 μM)"}, "THP-1 cells": {"tested_on": "THP-1 cells", "test": "Cell viability by propidium iodide staining", "type": "cell-based", "conditions": "at 10 μM; with respect to DMSO control", "method": "Human monocytic THP-1 cells were treated with phorbol 12-myristate 13 acetate (PMA) (100 nM) overnight to differentiate monocytic cells into macrophages. Then, after 24 hours of rest, the differentiated cells were incubated with test compounds for 12 hours at concentrations 0.01, 0.1, 1, 10, 30, and 50 μM. Cells were then washed once with PBS and primed with E. coli LPS (0.1 μg/ml) for 4 h followed by stimulation with ATP (5 μM) for an additional 30 min. The cell culture supernatants were then collected and OD values for IL-1β levels were measured by ELISA. The standard curve (OD VS concentration) for IL-1β was also plotted and used to determine the IL-1β concentration for the OD values. The percentage of inhibition of IL-1β was calculated using the formula: […]\nThe percentage IL-1β inhibition at different compound concentrations were plotted in a sigmoid curve and IC50 values were interpolated in Graphpad Prism. Cell death was evaluated by propidium iodide staining and OD was measured at 490 nm. Cell viability was estimated with respect to DMSO control."}, "IL-1β": {"tested_on": "IL-1β", "test": "LPS+ATP-induced model of inflammasome activation, plasma IL-1β by ELISA", "type": "in vivo, Balb/c mice", "conditions": "for % IL-1 β inhibition: mice plasma", "method": "The procedures detailed here can be utilized for testing all compounds of the disclosure. The example utilizes LPS+ATP-induced model of inflammasome activation in 8-10 weeks old male Balb/c mice for in vivo testing.\n8-10 weeks old male Balb/c mice were challenged by intraperitoneal (i.p.) injection of 200 μg/Kg (0.2 μg/g) LPS at t=0 hr, followed by i.p. injection of 5 mM solution of ATP at t=2 hr (2 h after LPS challenge). The compound of disclosure being tested for inhibitory activity (such as Compound 6) was administered both via intraperitoneal and oral route at −1 hr. Different doses of the compound of the disclosure were given to the mice […] as shown below.\nMCC950, a specific small molecule inhibitor of NLRP3 inflammasome was used as a positive control to enable comparison of inhibitory activity of the compounds of the disclosure along with a known inhibitor. 2.5 hours after the LPS priming (or 0.5 hours after ATP administration), blood was collected via retro-orbital bleeding in heparinized blood collection tubes. Blood was centrifuged for 5 minutes at 10,000 rpm in a refrigerated centrifuge to obtain plasma. Separated plasma was used for cytokine assessment by ELISA. The standard curve (OD VS concentration) for IL-1β was also plotted and used to determine the IL-1β concentration for the OD values. The percentage of inhibition of IL-1β was calculated using the formula: […]"}, "[1]": {"test": "Metabolic stability assay in human liver microsomes in the presence of specific cytochrome P450 inhibitors (arm without inhibitor, summary statements)"}, "CYP2D6": {"target": "T3, CYP2D6 (Homo sapiens, UniProt P10635)", "T3 construct": "The experiment was conducted in human liver microsomes; from tissue; host or cells: human liver microsomes", "T3 sequence (P10635 whole entry)": "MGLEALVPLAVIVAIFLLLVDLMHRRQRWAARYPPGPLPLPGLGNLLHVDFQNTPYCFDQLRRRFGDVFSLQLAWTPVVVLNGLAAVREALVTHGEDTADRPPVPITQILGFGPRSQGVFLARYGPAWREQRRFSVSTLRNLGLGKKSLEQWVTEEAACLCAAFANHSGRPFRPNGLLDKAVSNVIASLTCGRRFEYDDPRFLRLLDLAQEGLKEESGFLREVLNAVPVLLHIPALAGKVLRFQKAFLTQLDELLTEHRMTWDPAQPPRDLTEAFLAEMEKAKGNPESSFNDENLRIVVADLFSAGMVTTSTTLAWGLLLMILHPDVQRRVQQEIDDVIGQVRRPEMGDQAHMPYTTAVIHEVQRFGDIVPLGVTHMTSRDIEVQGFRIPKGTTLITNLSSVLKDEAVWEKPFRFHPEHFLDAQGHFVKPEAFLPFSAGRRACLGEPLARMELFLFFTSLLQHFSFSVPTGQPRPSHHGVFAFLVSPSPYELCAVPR", "test": "Metabolic stability in human liver microsomes with CYP 2D6 inhibitor Quinidine", "type": "in vitro ADME", "conditions": "1 μM + Quinidine (20 μM)"}, "[2]": {"conditions": "human liver microsomes, 1 μM, no inhibitor"}, "[3]": {"conditions": "human, human liver microsomes, pH 7.4"}}, "note": "“Also recorded” adds a separate entry of the source.", "data": [{"smiles": "O=C1Nc2ccccc2N(C(=O)CCl)c2ccc(F)cc21", "note": "[Compound 6, 5-(2-chloroacetyl)-2-fluoro-5,10-dihydro-11H-dibenzo[b,e][1,4]diazepin-11-one]", "values": [{"measurement": "% rem @ 5 min", "setting": "CYP 2C19", "result": "~100", "unit": "%"}, {"measurement": "% rem @ 15 min", "setting": "CYP 2C19", "result": 98.6, "unit": "%"}, {"measurement": "% rem @ 30 min", "setting": "CYP 2C19", "result": 84.6, "unit": "%"}, {"measurement": "% rem @ 45 min", "setting": "CYP 2C19", "result": 58.7, "unit": "%"}, {"measurement": "half-life at 1 µM", "setting": "CYP 2C19; pH 7.4, with Nootkatone 20 μM", "result": 0.91, "unit": "h"}, {"measurement": "microsomal CLint at 1 μM", "setting": "CYP 2C19; pH 7.4, with Nootkatone 20 μM, read-out: mCLint", "result": 25.4, "unit": "µL/min/mg"}, {"measurement": "% rem @ 5 min", "setting": "CYP 2C9", "result": 69.7, "unit": "%"}, {"measurement": "% rem @ 15 min", "setting": "CYP 2C9", "result": 63.3, "unit": "%"}, {"measurement": "% rem @ 30 min", "setting": "CYP 2C9", "result": 73.8, "unit": "%"}, {"measurement": "% rem @ 45 min", "setting": "CYP 2C9", "result": 54.3, "unit": "%"}, {"measurement": "half-life at 1 µM", "setting": "CYP 2C9; pH 7.4, with Sulfaphenazole 20 μM", "result": 1.28, "unit": "h"}, {"measurement": "microsomal CLint at 1 μM", "setting": "CYP 2C9; pH 7.4, with Sulfaphenazole 20 μM, read-out: mCLint", "result": 18, "unit": "µL/min/mg"}, {"measurement": "cell viability", "setting": "THP-1 cells", "result": 99, "unit": "%"}, {"measurement": "% IL-1 β inhibition", "setting": "IL-1β; 1 mg/kg, Intraperitoneal", "result": 52, "unit": "%"}, {"measurement": "% IL-1 β inhibition", "setting": "IL-1β; 10 mg/kg, Intraperitoneal", "result": 79, "unit": "%"}, {"measurement": "% IL-1 β inhibition", "setting": "IL-1β; 10 mg/kg, Oral", "result": 46, "unit": "%"}, {"measurement": "plasma IL-1β levels under in vivo conditions (FIG. 4, in words)", "setting": "IL-1β; escalating doses, LPS+ATP mice model", "result": "dose dependent reduction of IL-β; also recorded: dose dependent decrease in IL-1β levels"}, {"measurement": "stability in human liver microsomes (in words)", "setting": "[1]; human liver microsomes", "result": "medium to highly stability"}, {"measurement": "degradation", "setting": "[1]; human liver microsomes, in presence of specific CYP inhibitors", "result": "40-45%"}, {"measurement": "% rem @ 5 min", "setting": "[1]; [2]", "result": 93.5, "unit": "%"}, {"measurement": "% rem @ 15 min", "setting": "[1]; [2]", "result": 92.9, "unit": "%"}, {"measurement": "% rem @ 30 min", "setting": "[1]; [2]", "result": 91.3, "unit": "%"}, {"measurement": "% rem @ 45 min", "setting": "[1]; [2]", "result": 67.8, "unit": "%"}, {"measurement": "half-life at 1 µM", "setting": "[1]; [3]", "result": 1.6, "unit": "h"}, {"measurement": "microsomal CLint at 1 μM", "setting": "[1]; [3]", "result": 14.4, "unit": "µL/min/mg"}, {"measurement": "degradation", "setting": "[1]; incubated in human liver microsomes, no inhibitor", "result": "~35", "unit": "%"}, {"measurement": "% rem @ 5 min", "setting": "CYP2D6", "result": 80.8, "unit": "%"}, {"measurement": "% rem @ 15 min", "setting": "CYP2D6", "result": 67.3, "unit": "%"}, {"measurement": "% rem @ 30 min", "setting": "CYP2D6", "result": 57.4, "unit": "%"}, {"measurement": "% rem @ 45 min", "setting": "CYP2D6", "result": 60.1, "unit": "%"}, {"measurement": "half-life at 1 µM", "setting": "CYP2D6; pH 7.4, with quinidine 20 µM", "result": 1.07, "unit": "h"}, {"measurement": "microsomal CLint at 1 μM", "setting": "CYP2D6; pH 7.4, with quinidine 20 µM, read-out: mCLint", "result": 21.6, "unit": "µL/min/mg"}]}]}
